Reference: patent US11738007B2, “Treatment of glaucoma using endothelin receptor antagonists” (Perfuse Therapeutics, Inc., priority 2019, dated 2023)
“And” between values parts separate entries of the source, which are not always exact repeats. Equal entries are not always repeated. Where two headings read alike, the source gives them in different places.

Key:
ETB receptor = biological target: T1, ETB receptor (Homo sapiens, UniProt P24530); test: Functional potency for ETB receptor; format: biochemical
T1 sequence (P24530 27-442): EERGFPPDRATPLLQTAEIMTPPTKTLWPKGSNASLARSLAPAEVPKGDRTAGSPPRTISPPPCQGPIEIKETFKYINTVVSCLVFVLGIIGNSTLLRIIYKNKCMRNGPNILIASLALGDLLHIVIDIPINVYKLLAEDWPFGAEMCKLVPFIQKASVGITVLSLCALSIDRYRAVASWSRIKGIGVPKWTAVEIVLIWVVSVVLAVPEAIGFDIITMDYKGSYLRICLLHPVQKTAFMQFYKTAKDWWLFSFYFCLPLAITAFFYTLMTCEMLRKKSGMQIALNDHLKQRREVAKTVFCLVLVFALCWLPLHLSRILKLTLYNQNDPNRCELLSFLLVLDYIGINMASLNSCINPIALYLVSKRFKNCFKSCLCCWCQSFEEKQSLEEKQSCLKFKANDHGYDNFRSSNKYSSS
Description: (§1) In the above table, the physicochemical data, e.g., solubility, were obtained following standard protocols known in the field (see, e.g., Reis et al., Mini Rev Med Chem., 2010, 10(11):1071-6; Avdeef et al., Expert Opin Drug Metab Toxicol., 2005, 1(2):325-42; Bharate et al., Comb Chem High Throughput Screen., 2016, 19(6):461-9; and Jain et al., J Pharm Biomed Anal., 2013, 86:11-35); and the biochemical data, i.e., potency for ETA/ETB, were obtained following the protocols known in the field (see, e.g., Kirkby et al., Br J Pharmacol., 2008, 153(6):1105-19; and Maguire et al., Br J Pharmacol., 2014, 171(24):5555-72).

Solubility = format: physicochemical
Description: as §1

LogD = format: physicochemical; conditions: pH 7.4
Description: as §1

Permeability (PAMPA) = format: in vitro ADME; conditions: rating in words
Description: as §1

ET-1 induced vasospasm = test: Rabbit ET-1 induced vasospasm model, retinal blood flow; format: in vivo
Description: Adult, male Dutch-belted rabbits were given a 20 μl intravitreal injection (IVT) of 0.5 μg of ET-1 followed by a 20 μl intravitreal injection of 10-100 μg Edonentan given 30 min after the ET-1 administration. IOP, optical coherence tomography-angiography (OCT-A), and fluorescein angiograms (FA) were performed at pre-specified time points (30, 45, 60, and 75 min) following ET-1 and Edonentan administration to assess retinal blood flow changes induced by ET-1+/−Edonentan. […] To evaluate the effect of retinal blood flow following intravitreally administered endothelin-1 (ET-1) followed by the antagonist Edonentan in the rabbit, rabbits (Oryctolagus cuniculus) were given a 20 μL intravitreal injection of ET-1 in the left eye followed by a 20 μL intravitreal injection of Edonentan at 2 (or 3) different doses (e.g. 0.1 μg, 0.5 μg, 2.5 μg). The pulse ox, tonometry, optical coherence tomography angiography (OCTA), fluorescein angiography (FA) and retinal leakage scoring were performed for evaluation.

[1] = tested on: elevated intraocular pressure (IOP); test: Morrison's rat model of glaucoma (elevated IOP); format: in vivo, Brown Norway rats; conditions: topical eye drops 100 μg per dose, five days a week, four weeks
Description: Adult male and female retired breeder Brown Norway rats (approximate age groups of 8 to 11 months) were obtained from Envigo (Indianapolis, Ind.). Baseline IOP measurements and pattern electroretinogram (PERG) amplitudes were collected prior to the surgery for elevation of IOP (to ensure that the IOP and PERG amplitudes were in the expected range of values). IOP was elevated in one eye (left eye) of the rats, while the corresponding right eyes served as contralateral controls. The Morrison method to elevate IOP in rats was carried out by injection of 50 μL of hypertonic saline through the episcleral veins to sclerose the trabecular meshwork. IOP was measured twice a week throughout the entire duration of the experiment. […] After detecting an elevation of IOP for two consecutive days, topical administration of eye drops (20 μL (100 μg) per dose of the tested compounds in the IOP elevated eye) was commenced and carried out for five days a week for a total of four weeks. In the 4th week of treatment, PERG analysis was carried out and rats were sacrificed by an overdose of pentobarbital (Fatal-Plus). Aqueous humor was collected from the rat eyes, frozen and shipped for analysis. Retinal flat mounts were prepared, immunostained with the RGC marker, Brn3a antibody and surviving RGCs were counted in two eccentricities (central and peripheral). For this study, the Morrison's model was used to induce ocular hypertension in adult male retired breeder Brown Norway rats as previously described by Morrison et al., (Morrison J C, Moore […], Gold […], Johnson E C. A rat model of chronic pressure-induced optic nerve damage. Exp Eye Res. 1997; 64(1):85-96). The immunostained retinal flat mounts were obtained to measure the retinal ganglion cell (RGC) counts. To obtain immunostained retinal flat mounts, the animals were euthanized after the treatments and then their eyes were enucleated. The eye cups were fixed overnight at 4° C. in 4% paraformaldehyde (PFA) and retinal flat mounts were prepared for collecting images. The retinal ganglion cell (RGC) counting was conducted using the images of immunostained retinal flat mounts. The images were uploaded to ImageJ, a photo editor designed for biology research (Rasband, 1997-2018) and the labeled retinal ganglion cells were counted manually in two eccentricities (central and peripheral). […] Pattern ERG (PERG) was used to assess the RGC function. […] Briefly, PERG signals were acquired from a DTL-plus electrode placed on the lower part of the corneal surface and the PERG waves were analyzed using the EMWIN software (LKC). The difference between the amplitude of the major positive (P1) and negative (N2) waves were calculated to […] amplitude.

[2] = Pharmacokinetics after topical administration in the rabbit; format: in vivo, Dutch-belted rabbits; conditions: single topical eye drop 100 μg; 10 minutes, 2 and 7 hours
Description: To determine the pharmacokinetic properties of Edonentan following topical administration in the rabbit, rabbits (Dutch-belted rabbits) received an eye drop in both eyes (100 μg of Edonentan, 35 μL dose volume/eye). After the administrations, the animals (N=2) were euthanized at different time points (e.g. 10 minutes (immediately after pot-dose), 2 and 7 hours) and tissues were collected for analysis. List of tissues collected include plasma, retina, vitreous humor and bulbar conjunctiva.

Cc1onc(NS(=O)(=O)c2ccccc2-c2ccc(-c3ncco3)cc2CN(C)C(=O)CC(C)(C)C)c1C [Edonentan, N-[[2′-[[(4,5-dimethyl-3-isoxazolyl)amino]sulfonyl]-4-(2-oxazolyl)[1,1′-biphenyl]-2-yl]methyl]-N,3,3-trimethylbutanamide]
IC50 (ETB receptor): 590 nM
solubility (Solubility; aqueous buffer, pH 7, amorphous form, read-out: Solubility at pH 7): 326 µg/mL and 607 µM
solubility (Solubility; ethyl acetate, organic solvent or mixture, read-out: Solubility in Ethyl Acetate): > 8900 µg/mL and > 16800 µM
Solubility in Ethyl Acetate (rating) (Solubility; ethyl acetate, rating in words): Good
solubility (Solubility; pH 2, simulated gastric fluid, read-out: Solubility at pH 2): < 0.54 µg/mL and < 1 µM
logD (LogD): 1.48
Permeability (rating) (Permeability (PAMPA)): Mid-High
Fluorescein dye velocity, dose dependence (ET-1 induced vasospasm; 0.1 μg ET-1 and 0.1, 0.5, 2.5 or 10 μg Edonentan IVT, FIG. 8A/8B): dose-response
Effect of ET-1 (retinal vasoconstriction) after antagonist, fluorescein angiography (ET-1 induced vasospasm; 0.5 μg ET-1 IVT, 10 μg Edonentan IVT 30 min after ET-1): reversed
Time to reversal of ET-1 effect (ET-1 induced vasospasm; 0.5 μg ET-1 IVT, 10 μg Edonentan IVT, time after ET-1 (60 min after Edonentan)): ≤ 90 min
Fluorescein dye velocity as an index of retinal blood flow (ET-1 induced vasospasm; 0.5 μg ET-1 and 10 μg antagonist IVT, healthy rabbits, FIG. 3): improved to control levels
RGC function, pattern electroretinogram (PERG) changes [1]: maintained RGC function
Retinal ganglion cell (RGC) counts, peripheral retina [1]: prevented RGC loss
Detection in plasma, retina, vitreous humor and bulbar conjunctiva [2]: detected in all tissues examined at all timepoints
